# In US20120219506A1, “Catenae: Serosal Cancer Stem Cells” (SLOAN KETTERING INSTITUTE FOR CANCER RESEARCH, priority 2009, published 2012):
# Where two headings read alike, the source gives them in different places.
# Tests used:
# catena cells [1] = experiment: Morphological effects on catena cells observed under the microscope; type: cell-based, human; conditions: for catena cells observed under the microscope in cultures treated with high concentrations: 100 μM (rapamycin 25 μM, lovastatin acid 50 μM), cells arrested at mitosis, re-entered cell cycle without drug
# Procedure: When these cells were harvested and cultured in the absence of drugs, they re-entered the cell cycle.
# These spheroids continued to grow in the presence of high concentrations of rapamycin (>50 uM) and retained their spheroid morphology.
# The change in the cell-to-cell junctions might also be a resistance mechanism where cells activate signaling pathways by increasing cell-to-cell attachment or more tightly control transport of molecules between cells. […]
# [2] = Viscosity of catena culture supernatant after hyaluronidase; conditions: a few drops 10 mg/mL hyaluronidase
# Procedure: In contrast, Ovcar3-GTL epithelial cells were 98% positive for CA125 by FACS and secreted 800 units/ml of CA125 into culture media. For the ELISA, cell supernatants were collected by spinning the cultures at 300×g for 5 min to remove cells and assayed by CA125 ELISA using an automated instrument, ADVIA Centaur XP Immunoassay System (Siemens Healthcare Diagnostics Inc.).
# Hyaluronan is a glycosaminoglycan found in extracellular matrix and functions to provide microenvironmental cues in a number of biological processes, including tumor development [Toole, 2004]. Supernatants prepared as above were treated with a few drops 10 mg/mL hyaluronidase (Sigma) in deionized water.
# catena cells [3] = experiment: Growth of catena cells upon disruption of the glycocalyx; type: cell-based, human
# Procedure: To investigate the how catena cells grow upon disruption of the glycocalyx, catenae were dissociated to single cells with hyaluronidase treatment and plated in tissue culture treated flasks with or without 10% hyaluronidase enzyme solution (10 mg/ml) to prevent the formation of glycocalyx. In parallel, catenae were dissociated mechanically and plated in the absence of hyaluronidase.
# Ovcar3-GTL catenae [4] = experiment: Catena morphology on basement membrane matrix (Matrigel) coated plates; type: cell-based, human; conditions: for morphology on Matrigel, hyaluronidase-pretreated cells grown with 4-MU and Y27632 / morphology on Matrigel, mechanically-dissociated cells grown with 4-MU and Y27632: 1 mM 4-MU together with 50 μM Y27632, imaged after 4 days
# Procedure: Ovcar3-GTL catenae were dissociated to single cells by mechanical dissociation or by hyaluronidase treatment and cultured on basement membrane matrix (Matrigel) coated plates. A similar set of cultures were grown in the presence of 1 mM 4-methylumbelliferone (4-MU) and 50 μM Y27632, the former being an hyaluronan synthase 2 (HAS2) inhibitor and the latter being a Rho-ROCK inhibitor. The cultures were imaged after 4 days.
# Ovcar3-GTL catenae [5] = experiment: Particle exclusion experiment with red blood cells (glycocalyx visualisation); type: cell-based, human; conditions: brief incubation with hyaluronidase, RBCs overnight
# Procedure: To visualize the glycocalyx surrounding a catena, a particle exclusion experiment was conducted using red blood cells (RBCs). Catenae were mechanically dissociated by pipetting or by brief incubation with hyaluronidase as before. RBCs from human peripheral blood were added and the mixture was incubated overnight in culture media. The cells were observed under the light microscope for the presence of a glycocalyx separating catena cells from the RBCs.
# Ovcar3-GTL catenae [6] = experiment: Ovcar3-GTL catena drug sensitivity (proliferation, alamarBlue, 384-well)
# Procedure: Cultures of Ovcar3-GTL catenae were mechanically or enzymatically dissociated to single cells. For mechanical dissociation, catena cultures were pipetted vigorously, an equal volume of M5-FCS media was added to decrease the viscosity, and the cells were pelleted. For enzymatic dissociation, catena cultures were incubated at 5 mg/ml collagenase IV (Invitrogen) for 10 min at 37° C. followed by centrifugation to pellet the cells. Cells were resuspended in M5-FCS to produce homogenous cultures of single cells which were seeded in 50 μL aliquots per well at the indicated cell densities and grown for the indicated times before addition of test compounds or other reagents.
# The amount of fluorescence or absorbance is proportional to the number of living cells and corresponds to the cells metabolic activity. […] Absorbance of alamarBlue® is monitored at 570 nm, using 600 nm as a reference wavelength. Larger fluorescence emission intensity (or absorbance) values correlate to an increase in total metabolic activity from cells.
# For these experiments, 25 Ovcar3-GTL catena or 250 Ovcar3-GTL catena cells were seeded per well as described above. […] Five days after adding the test compound, alamarBlue® was added to the cultures and culture absorbance was measured 48 hours later.
# catena cells [7] = experiment: Exosome release from catena cells (exosome isolation and FACS); type: cell-based, human; conditions: PMA 10 uM
# Procedure: To prepare secreted and exosomal fractions from catenae, the catenae were grown in serum-free media with insulin as described in Example 28 for 5 days, until the culture was near confluent. All centrifugations were done at 4° C. to preserve protein integrity. The cells were removed by centrifugation at 300×g for 10 min. The supernatant fraction was further spun down at 2,000×g for 20 minutes and at 10,000×g for 30 min to remove cellular debris. This supernatant was subjected to ultracentrifugation at100,000×g for 2.5 h. The new supernatant fraction, containing the soluble proteins secreted by catenae (i.e., the catena secretome) was concentrated 200-fold by through a 10 kDa molecular weight cutoff filter. The resulting pellet from the ultracentrifugation was washed twice with PBS, with each wash followed by another round of ultracentrifugation under the same conditions, and kept at 4° C. for further analysis. Exosomes were isolated from Ovcar5 and A2780 human ovarian cancer cell lines that were grown as attached mesenchymal monolayers and from two ovarian cancer patient ascites samples using the same methodology. […]
# The exosome isolation followed by FACS analysis allows rapid analysis of ovarian cancer stem cell exosomes both quantitatively and qualitatively. […]
compound,measurement,setting,value
hyaluronidase,morphological change of catenae on treatment,catena cells [1],lose their polarity and form irregular aggregates
same,viscosity of the culture supernatant,[2],rapidly reduced the viscosity of the supernatant
same,"growth of catena cells after brief hyaluronidase treatment, plated without enzyme",catena cells [3],no longer formed free floating chains but rather proliferated as irregular aggregates in suspension
same,growth of catena cells continuously treated with hyaluronidase,catena cells [3]; 10% hyaluronidase enzyme solution (10 mg/ml),attached to tissue culture plates and formed epithelial and mesenchymal monolayers
same,"morphology on Matrigel, cells treated with only hyaluronidase",Ovcar3-GTL catenae [4]; imaged after 4 days,attached to extracellular matrix and grew as attached irregular aggregates
same,glycocalyx in particle exclusion experiment,Ovcar3-GTL catenae [5],completely lacked a glycocalyx
COc1cccc2c1C(=O)c1c(O)c3c(c(O)c1C2=O)C[C@@](O)(C(=O)CO)C[C@@H]3O[C@H]1C[C@H](N)[C@H](O)[C@H](C)O1 [doxorubicin],Increase in Resistance Day 6/Day 1,Ovcar3-GTL catenae [6]; IC50 day 6 / IC50 day 1,32 fold
"C=CCNC1=C2C[C@@H](C)C[C@H](OC)[C@H](O)[C@@H](C)/C=C(\C)[C@H](OC(N)=O)[C@@H](OC)/C=C\C=C(/C)C(=O)NC(=CC1=O)C2=O [17AAG, 17-AAG/Tanespimycin]",Increase in Resistance Day 6/Day 1,Ovcar3-GTL catenae [6]; IC50 day 6 / IC50 day 1,33 fold
CC[C@@]1(O)C(=O)OCc2c1cc1n(c2=O)Cc2cc3c(CN(C)C)c(O)ccc3nc2-1 [topotecan],catena cells observed under the microscope in cultures treated with high concentrations,catena cells [1],"live, large single cells"
same,Increase in Resistance Day 6/Day 1,Ovcar3-GTL catenae [6]; IC50 day 6 / IC50 day 1,"5,000 fold"
CCCCCCCCCCCCCC(=O)O[C@@H]1[C@@H](C)[C@@]2(O)[C@@H](C=C(CO)C[C@]3(O)C(=O)C(C)=C[C@@H]23)[C@@H]2C(C)(C)[C@]12OC(C)=O [phorbol 12-myristate 13-acetate],exosome release,catena cells [7],induced exosomes release
iso-oxazole-fludelone,catena cells observed under the microscope in cultures treated with high concentrations,catena cells [1],"live, large single cells"
same,Increase in Resistance Day 6/Day 1,Ovcar3-GTL catenae [6]; IC50 day 6 / IC50 day 1,"33,333 fold"
C[C@@H](N)[C@H]1CC[C@H](C(=O)Nc2ccncc2)CC1 [Y27632],"morphology on Matrigel, hyaluronidase-pretreated cells grown with 4-MU and Y27632",Ovcar3-GTL catenae [4],the cultures did not become viscous and the attached cells formed filopodial extensions
same,"morphology on Matrigel, mechanically-dissociated cells grown with 4-MU and Y27632",Ovcar3-GTL catenae [4],"did not become viscous; rather, the cells attached to the plates and formed filopodial extensions"
COc1cc([C@@H]2c3cc4c(cc3[C@@H](O[C@@H]3O[C@@H]5CO[C@@H](C)O[C@H]5[C@H](O)[C@H]3O)[C@H]3COC(=O)[C@H]23)OCO4)cc(OC)c1O [etoposide],Increase in Resistance Day 6/Day 1,Ovcar3-GTL catenae [6]; IC50 day 6 / IC50 day 1,125 fold
CO[C@H]1C[C@@H]2CC[C@@H](C)[C@@](O)(O2)C(=O)C(=O)N2CCCC[C@H]2C(=O)O[C@H]([C@H](C)C[C@@H]2CC[C@@H](O)[C@H](OC)C2)CC(=O)[C@H](C)/C=C(\C)[C@@H](O)[C@@H](OC)C(=O)[C@H](C)C[C@H](C)/C=C/C=C/C=C/1C [rapamycin],Increase in Resistance Day 6/Day 1,Ovcar3-GTL catenae [6]; IC50 day 6 / IC50 day 1,2 fold
"C/C(=C\c1csc(C)n1)[C@@H]1C[C@@H]2O[C@]2(C)CCC[C@H](C)[C@H](O)[C@@H](C)C(=O)C(C)(C)[C@@H](O)CC(=O)O1 [Epo-B, Epothilone B]",Increase in Resistance Day 6/Day 1,Ovcar3-GTL catenae [6]; IC50 day 6 / IC50 day 1,"4,000 fold"
CC[C@H](C)C(=O)O[C@H]1C[C@@H](C)C=C2C=C[C@H](C)[C@H](CC[C@@H](O)C[C@@H](O)CC(=O)O)[C@H]21 [lovastatin acid],catena cells observed under the microscope in cultures treated with high concentrations,catena cells [1],"live, large single cells"
same,Increase in Resistance Day 6/Day 1,Ovcar3-GTL catenae [6]; IC50 day 6 / IC50 day 1,2 fold
C/C1=C/C[C@@H](/C(C)=C/c2csc(C)n2)OC(=O)C[C@H](O)C(C)(C)C(=O)[C@H](C)[C@@H](O)[C@@H](C)CCC1 [dEpoB],Increase in Resistance Day 6/Day 1,Ovcar3-GTL catenae [6]; IC50 day 6 / IC50 day 1,"250,000 fold"
COc1cccc2c1C(=O)c1c(O)c3c(c(O)c1C2=O)C[C@@](O)(C(C)=O)C[C@@H]3O[C@H]1C[C@H](N)[C@H](O)[C@H](C)O1 [daunarubacin],Increase in Resistance Day 6/Day 1,Ovcar3-GTL catenae [6]; IC50 day 6 / IC50 day 1,133 fold
"O=c1[nH]cc(F)c(=O)[nH]1 [5-FU, 5-fluorouracil]",morphological change of catenae on treatment,catena cells [1],formation of fused chains
same,Increase in Resistance Day 6/Day 1,Ovcar3-GTL catenae [6]; IC50 day 6 / IC50 day 1,33 fold
C[C@@H](Oc1cc(-c2cnn(C3CCNCC3)c2)cnc1N)c1c(Cl)ccc(F)c1Cl [PF-02341066],Increase in Resistance Day 6/Day 1,Ovcar3-GTL catenae [6]; IC50 day 6 / IC50 day 1,31 fold
O=c1cc(N2CCOCC2)oc2c(-c3ccccc3)cccc12 [LY294002],Increase in Resistance Day 6/Day 1,Ovcar3-GTL catenae [6]; IC50 day 6 / IC50 day 1,4 fold
Cc1ccc2c(c1)C(=O)C1(O)CCN(c3ccccc3)C1=N2 (stereo not shown) [blebbistatin],exosome release,catena cells [7],inhibited exosome release
C/C(=C\c1csc(C)n1)[C@@H]1C/C=C(/C(F)(F)F)C/C=C/[C@H](C)[C@H](O)[C@@H](C)C(=O)C(C)(C)[C@@H](O)CC(=O)O1 [fludelone],catena cells observed under the microscope in cultures treated with high concentrations,catena cells [1],"live, large single cells"
Nc1ccn([C@@H]2O[C@H](CO)[C@@H](O)[C@@H]2O)c(=O)n1 [Ara-C],catena cells observed under the microscope in cultures treated with high concentrations,catena cells [1],"live, large single cells"
same,Increase in Resistance Day 6/Day 1,Ovcar3-GTL catenae [6]; IC50 day 6 / IC50 day 1,"2,000 fold"
CC(=O)O[C@H]1C(=O)[C@@]2(C)[C@H]([C@H](OC(=O)c3ccccc3)[C@]3(O)C[C@H](OC(=O)[C@H](O)[C@@H](NC(=O)c4ccccc4)c4ccccc4)C(C)=C1C3(C)C)[C@]1(OC(C)=O)CO[C@@H]1C[C@@H]2O [paclitaxel],catena cells observed under the microscope in cultures treated with high concentrations,catena cells [1],"live, large single cells"
same,IC50,"Ovcar3-GTL catenae [6]; Homo sapiens, read-out: IC50 Addition on Day 1",0.012 nM
O=C(CCCCCCC(=O)Nc1ccccc1)NO [SAHA],morphological change of catenae on treatment,catena cells [1],formation of tight spheroids
CC(=O)c1c(C)c2cnc(Nc3ccc(N4CCNCC4)cn3)nc2n(C2CCCC2)c1=O [PD-0332991],Increase in Resistance Day 6/Day 1,Ovcar3-GTL catenae [6]; IC50 day 6 / IC50 day 1,83 fold
CO[C@@]12[C@H](COC(N)=O)C3=C(C(=O)C(C)=C(N)C3=O)N1C[C@@H]1N[C@@H]12 [mitomycin-C],Increase in Resistance Day 6/Day 1,Ovcar3-GTL catenae [6],60 fold
Cc1cc(=O)oc2cc(O)ccc12 [4-methylumbelliferone],"morphology on Matrigel, hyaluronidase-pretreated cells grown with 4-MU and Y27632",Ovcar3-GTL catenae [4],the cultures did not become viscous and the attached cells formed filopodial extensions
same,"morphology on Matrigel, mechanically-dissociated cells grown with 4-MU and Y27632",Ovcar3-GTL catenae [4],"did not become viscous; rather, the cells attached to the plates and formed filopodial extensions"
